# Data published in patent US20080045514A1 (Cytovia, Inc., priority 2006, published 2008).
# Columns and labels:
# Type in all cases: cell-based
# [1] = system: human breast cancer cell line T-47D; assay: Caspase cascade activation (EC50), T-47D; conditions: Homo sapiens; T47D cells; caspase cascade activation; read-out: caspase potency (EC50) T47D
# Outline: (§1)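 Test compound (0.016–10 μM final) is incubated with cells for 48 h at 37 °C. Caspase-3-like activity is measured by 3 h room-temperature cleavage of DEVD-R110 in PIPES pH 7.2 lysis buffer, with EC50 from sigmoidal fitting of background-corrected RFU relative to control.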
# [2] = system: human colon carcinoma cell line HCT116; assay: Inhibition of cell proliferation (GI50), HCT116; conditions: Homo sapiens; HCT 116 cells, 48 h, CellTiter-Glo
# Outline: (§2)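 Cells (4.4×10^4 cells/mL) exposed to compound at 1 nM to 10 μM final for 48 h at 37 °C, 5% CO2; growth read by CellTiter-Glo luminescence. Baseline luminescence taken after 0.5 h incubation. GI50 is the concentration where (Ltest−LStart)/(LMax−LStart)=0.5, LMax from untreated cells.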
# [3] = system: human Burkitt's lymphoma cell line Namalwa; assay: Caspase cascade activation (EC50), Namalwa; conditions: Homo sapiens, Burkitts lymphoma cell; Namalwa cells; caspase cascade activation; read-out: caspase potency (EC50) Namalwa
# Outline: as §1
# [4] = system: human colon carcinoma cell line HCT116; assay: Caspase cascade activation (EC50), HCT116; conditions: Homo sapiens, HCT-116; HCT116 cells; caspase cascade activation; read-out: caspase potency (EC50) HCT116
# Outline: as §1
# [5] = system: human hepatocellular carcinoma cell line SNU398; assay: Inhibition of cell proliferation (GI50), SNU398; conditions: Homo sapiens; SNU 398 cells, 48 h, CellTiter-Glo
# Experimental: (§3) Human breast cancer cell lines T-47D, human hepatocellular carcinoma cell line SNU398, human colon carcinoma cell line HCT116, human lung cancer cell line H1299, human leukemia cell line K562, human lymphoma cell line Raji, human B cell lymphoblastoid cell line Ramos, and human Burkitt's lymphoma cell line Namalwa were grown and harvested as in Example 100. An aliquot of […] of cells (4.4×10^4 cells/mL) was added to a well of a 96-well microtiter plate containing 5 μL of a 10% DMSO in RPMI-1640 media solution containing 10 nM to 100 μM of 3-(2-chlorophenyl)-6-(3,4-methylenedioxyphenyl)-7H-[1,2,4]triazolo[3,4-b][1,3,4]thiadiazine (1 nM to 10 μM final). An aliquot of 45 μL of cells was added to a well of a 96-well microtiter plate containing 5 μL of a 10% DMSO in RPMI-1640 media solution without compound as the control sample for maximal cell proliferation (LMax). The samples were mixed by agitation and then incubated at 37° C. for 48 h in a 5% CO2-95% humidity incubator. After incubation, the samples were removed from the incubator and 25 μL of CellTiter-Glo™ reagent (Promega) was added. The samples were mixed by agitation and incubated at room temperature for 10-15 min. Plates were then read using a luminescent plate reader (Model SPECTRAfluor Plus, Tecan) to give Ltest values.
# (§4) The samples were mixed by agitation and then incubated at 37° C. for 0.5 h in a 5% CO2-95% humidity incubator. After incubation, the samples were removed from the incubator and 25 μL of CellTiter-Glo™ reagent (Promega) was added. The samples were mixed by agitation and incubated at […] 10-15 min at room temperature in a 5% CO2-95% humidity incubator. Fluorescence was read as above, (LStart) defining luminescence for initial cell number used as baseline in GI50 determinations.
# (§5) Calculation: GI50 (dose for 50% inhibition of cell proliferation) is the concentration where [(Ltest−LStart)/(LMax−LStart)]=0.5.
# [6] = system: human hepatocellular carcinoma cell line SNU398; assay: Caspase cascade activation (EC50), SNU398; conditions: Homo sapiens, SNU-398; SNU398 cells; caspase cascade activation; read-out: caspase potency (EC50) SNU398
# Outline: as §1
# [7] = system: human breast cancer cell line T-47D; assay: Inhibition of cell proliferation (GI50), T47D; conditions: Homo sapiens; T47D cells, 48 h, CellTiter-Glo
# Experimental: as §3, §4, §5
# [8] = system: human Burkitt's lymphoma cell line Namalwa; assay: Inhibition of cell proliferation (GI50), Namalwa; conditions: Homo sapiens, Burkitts lymphoma cell; Namalwa cells, 48 h, CellTiter-Glo
# Outline: as §2
SMILES,EC50 [1] [nM],GI50 [2] [nM],EC50 [3] [nM],EC50 [4] [nM],GI50 [5] [nM],EC50 [6] [nM],GI50 [7] [nM],GI50 [8] [nM]
"COc1ccccc1-c1nnc2n1N=C(c1ccc(C)c(N)c1)CS2 [Example 58, 6-(3-Amino-4-methylphenyl)-3-(2-methoxyphenyl)-7H-[1,2,4]triazolo[3,4-b][1,3,4]thiadiazine]",76,52,30,54,24,32,26,25
"COc1ccccc1-c1nnc2n1N=C(c1ccc(Cl)c(N)c1)CS2 [Example 59, 6-(3-Amino-4-chlorophenyl)-3-(2-methoxyphenyl)-7H-[1,2,4]triazolo[3,4-b][1,3,4]thiadiazine]",102,149,34,59,98,43,103,84
"Cc1ccc(C2=Nn3c(nnc3-c3ccccc3C)SC2)cc1N [Example 61, 6-(3-Amino-4-methylphenyl)-3-(2-methylphenyl)-7H-[1,2,4]triazolo[3,4-b][1,3,4]thiadiazine]",330,400,71,137,228,109,269,150
"COc1ccc(Cl)cc1-c1nnc2n1N=C(c1ccc(C)cc1)CS2 [Example 62, 3-(5-Chloro-2-methoxyphenyl)-6-(4-methylphenyl)-7H-[1,2,4]triazolo[3,4-b][1,3,4]thiadiazine]",101,50,18,31,10,24,33,15
"COc1cccc(C2=Nn3c(nnc3-c3ccccc3OC)SC2)c1 [Example 63, 3-(2-Methoxyphenyl)-6-(3-methoxylphenyl)-7H-[1,2,4]triazolo[3,4-b][1,3,4]thiadiazine]",261,300,128,277,119,146,371,232
"COc1cccc(-c2nnc3n2N=C(c2ccc(C)cc2)CS3)c1OC [Example 65, 3-(2,3-Dimethoxyphenyl)-6-(4-methylphenyl)-7H-[1,2,4]triazolo[3,4-b][1,3,4]thiadiazine]",610,4680,561,635,204,522,1510,1230
"COc1cc(-c2nnc3n2N=C(c2ccc(N)cc2)CS3)cc(OC)c1OC [Example 66, 6-(4-Aminophenyl)-3-(3,4,5-trimethoxyphenyl)-7H-[1,2,4]triazolo[3,4-b][1,3,4]thiadiazine]",72,127,16,29,24,21,47,43
"Cc1ccc(C2=Nn3c(nnc3-c3ccccc3F)SC2)cc1 [Example 68, 3-(2-Fluorophenyl)-6-(4-methylphenyl)-7H-[1,2,4]triazolo[3,4-b][1,3,4]thiadiazine]",5260,947,481,1260,144,636,2760,269
"COc1ccc(OC)c(-c2nnc3n2N=C(c2ccc(C)cc2)CS3)c1 [Example 69, 3-(2,5-Dimethoxyphenyl)-6-(4-methylphenyl)-7H-[1,2,4]triazolo[3,4-b][1,3,4]thiadiazine]",42,41,11,17,4,15,50,10
"Cc1ccc(C2=Nn3c(nnc3-c3ccccc3C)SC2)cc1 [Example 70, 3-(2-Methylphenyl)-6-(4-methylphenyl)-7H-[1,2,4]triazolo[3,4-b][1,3,4]thiadiazine]",546,1010,157,205,144,165,500,158

# Next, values leading:
EC50 [1] [nM],GI50 [2] [nM],EC50 [3] [nM],EC50 [4] [nM],GI50 [5] [nM],EC50 [6] [nM],GI50 [7] [nM],GI50 [8] [nM],SMILES
453,169,65,76,91,70,276,77,"CSc1ccccc1-c1nnc2n1N=C(c1ccc(C)cc1)CS2 [Example 71, 3-(2-Methylthiophenyl)-6-(4-methylphenyl)-7H-[1,2,4]triazolo[3,4-b][1,3,4]thiadiazine]"
238,867,136,266,180,203,345,179,"COc1ccccc1-c1nnc2n1N=C(c1ccc(N)cc1)CS2 [Example 75, 6-(4-Aminophenyl)-3-(2-methoxyphenyl)-7H-[1,2,4]triazolo[3,4-b][1,3,4]thiadiazine]"
93,109,62,72,23,54,34,55,"COc1ccccc1-c1nnc2n1N=C(c1ccc(N=[N+]=[N-])cc1)CS2 [Example 76, 6-(4-Azidophenyl)-3-(2-methoxyphenyl)-7H-[1,2,4]triazolo[3,4-b][1,3,4]thiadiazine]"
18,12,7,11,2,14,5,5,"COc1ccccc1-c1nnc2n1N=C(c1ccc(N(C)C)cc1)CS2 [Example 77, 6-(4-dimethylaminophenyl)-3-(2-methoxyphenyl)-7H-[1,2,4]triazolo[3,4-b][1,3,4]thiadiazine]"
188,300,115,204,115,117,297,170,"COc1ccccc1-c1nnc2n1N=C(c1ccc(NC(C)C)cc1)CS2 [Example 80, 6-(4-Isopropylaminophenyl)-3-(2-methoxyphenyl)-7H-[1,2,4]triazolo[3,4-b][1,3,4]thiadiazine]"
270,79,55,67,21,39,255,18,"Cc1ccc(C2=Nn3c(nnc3-c3ccc(Cl)cc3C)SC2)cc1 [Example 81, 3-(4-Chloro-2-methylphenyl)-6-(4-methylphenyl)-7H-[1,2,4]triazolo[3,4-b][1,3,4]thiadiazine]"
528,911,125,130,154,148,498,150,"CNc1ccccc1-c1nnc2n1N=C(c1ccc(C)cc1)CS2 [Example 84, 3-(2-Methylaminophenyl)-6-(4-methylphenyl)-7H-[1,2,4]triazolo[3,4-b][1,3,4]thiadiazine]"
284,40,32,55,13,52,34,64,COc1ccc(C2=Nn3c(nnc3-c3ccc(Cl)cc3Cl)SC2)cc1 [Example N3]
